In general, IC50 refers to the concentration that gives 50% inhibition. Broadly, the EC50 is the concentration at which the effect is half-maximal. In general, AC50 refers to the concentration giving half of the maximal activity seen.

The source made the active and inactive calls. Some results are limits rather than exact numbers.

The record followed here is ChEMBL document CHEMBL1201862, “PubChem BioAssay data set” (2004).

One assay addresses Large T antigen (Simian virus 40, UniProt P03070). Type of assay: functional, Betapolyomavirus macacae.
Assay [1] addresses T1, Heat shock factor protein 1 (Mus musculus, UniProt P38532).
T1 sequence (P38532 whole entry): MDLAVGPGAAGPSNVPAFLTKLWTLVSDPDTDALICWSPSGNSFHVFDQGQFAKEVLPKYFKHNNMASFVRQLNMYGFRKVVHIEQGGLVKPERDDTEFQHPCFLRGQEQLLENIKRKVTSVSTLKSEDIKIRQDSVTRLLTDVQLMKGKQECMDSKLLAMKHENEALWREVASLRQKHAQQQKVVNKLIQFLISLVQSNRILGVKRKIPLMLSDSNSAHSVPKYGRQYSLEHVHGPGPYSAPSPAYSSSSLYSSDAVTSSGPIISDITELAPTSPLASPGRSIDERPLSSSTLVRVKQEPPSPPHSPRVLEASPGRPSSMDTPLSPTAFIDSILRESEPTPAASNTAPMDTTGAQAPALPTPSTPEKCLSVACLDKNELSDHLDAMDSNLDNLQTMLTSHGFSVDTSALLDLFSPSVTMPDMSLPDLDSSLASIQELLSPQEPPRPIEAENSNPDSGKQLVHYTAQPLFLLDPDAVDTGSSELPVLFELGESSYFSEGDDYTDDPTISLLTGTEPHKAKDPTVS
Briefly: enhancement of HSF1-driven luciferase signal – cell-based, NIH3T3, luminescence, dose retest, confirmation (AID 435004).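 Also: stress induced by proteasome inhibitor MG132 added 30 min after compound; luciferase reporter driven by HSF1 response element in NIH3T3 cells; actives raise luminescence as potentiators of the MG132 stress response.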 It counts as functional.

Assay [2] can be described thus: Luminescence Cell-Based Dose Retest to Confirm Inhibitors of Cancer Stem Cells. [Related pubchem assays (depositor defined):AID2717, AID2721]. Type of assay: functional. The settings on record: Homo sapiens.
Another assay in a line: cells. It counts as functional.
Assay [3] is described as follows: viability of PTEN-deleted HCT116 cells – cell-based, HCT116 PTEN knockout, dose response (AID 1047).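 Also: HCT116 colon tumor cells with PTEN knocked out; cells exposed to compound for 60 hours before readout; potency for loss of cell viability measured by luminescence.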 It counts as functional.
Assay [4] can be described thus: Trypanosoma cruzi growth suppression in host cells – NIH3T3 host cells, beta-gal luminescence, confirmation (AID 2044).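 Also: intracellular parasites grown in NIH/3T3 mouse fibroblasts as host cells; luminescent beta-galactosidase reporter signal from transgenic T. cruzi replicating inside host cells; inhibitors lower the luminescence signal.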 Type of assay: functional, cell-based.
Assay [5] can be described thus: viability of HCT116 lacking mutant beta-catenin – cell-based, human colon tumor, dose response (AID 1045).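 Also: HCT116 colon tumor cells with beta catenin knocked out; cells exposed to compound for 60 hours.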 It counts as functional.
The subject of assay [6] is Streptococcus sp. 'group A'. Briefly: Streptococcus pyogenes SK(-)GAS viability under kanamycin – luminescence, BacTiterGlo, confirmation, counter-screen for streptokinase expression inhibitor project, dose response (AID 1900). It counts as functional, organism-based.
In a further assay the test system is Streptococcus. Nature of the assay: GAS UMAA2166 growth inhibition – luminescence, BacTiterGlo, counter-screen for streptokinase expression inhibitor project, dose response (AID 1915).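 Also: potency for reduction of bacterial viability or growth.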 It counts as functional, organism-based. (In general: The purpose of a counterscreen is to sort out artefacts and off-target activity.)
Assay [7] in a line: NIH3T3 cell viability loss – ATP luminescence, mouse fibroblasts, counter-screen, dose response (AID 2010).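 Also: cells exposed to compound for about 90 hours before reading.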 Type of assay: functional, cell-based.
The nature of assay [8]: microbe, parasite or virus in culture. It counts as functional. The settings on record: Mycobacterium tuberculosis.
Assay [9] concerns the target T2, Rac GTPase-activating protein 1 (Homo sapiens, UniProt Q9H0H5).
T2 sequence (Q9H0H5 whole entry): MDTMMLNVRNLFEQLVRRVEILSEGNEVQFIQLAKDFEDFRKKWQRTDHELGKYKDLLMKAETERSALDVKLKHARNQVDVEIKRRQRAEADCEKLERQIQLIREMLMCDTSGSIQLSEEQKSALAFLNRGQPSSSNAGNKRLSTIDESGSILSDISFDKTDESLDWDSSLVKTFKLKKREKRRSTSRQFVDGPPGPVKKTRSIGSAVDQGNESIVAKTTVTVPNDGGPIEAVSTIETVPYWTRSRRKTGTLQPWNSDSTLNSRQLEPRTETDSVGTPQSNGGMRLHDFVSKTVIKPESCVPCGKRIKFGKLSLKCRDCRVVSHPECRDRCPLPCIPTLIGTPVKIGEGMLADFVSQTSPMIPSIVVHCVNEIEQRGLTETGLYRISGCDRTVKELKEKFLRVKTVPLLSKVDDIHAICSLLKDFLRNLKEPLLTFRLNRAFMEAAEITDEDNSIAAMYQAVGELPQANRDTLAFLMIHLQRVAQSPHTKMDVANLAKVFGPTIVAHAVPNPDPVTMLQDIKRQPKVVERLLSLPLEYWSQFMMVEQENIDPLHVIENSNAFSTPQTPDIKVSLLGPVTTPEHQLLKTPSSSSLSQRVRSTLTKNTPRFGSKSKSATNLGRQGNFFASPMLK
Nature of the assay: blockers of MgcRacGAP-driven Rac1 GTP hydrolysis – biochemical, ADP Hunter fluorescence, primary and confirmatory, confirmation (AID 624330). It counts as functional.

For a further assay, the target named is T3, Streptokinase A (Streptococcus pyogenes serotype M1, UniProt P10520).
T3 sequence (P10520 whole entry): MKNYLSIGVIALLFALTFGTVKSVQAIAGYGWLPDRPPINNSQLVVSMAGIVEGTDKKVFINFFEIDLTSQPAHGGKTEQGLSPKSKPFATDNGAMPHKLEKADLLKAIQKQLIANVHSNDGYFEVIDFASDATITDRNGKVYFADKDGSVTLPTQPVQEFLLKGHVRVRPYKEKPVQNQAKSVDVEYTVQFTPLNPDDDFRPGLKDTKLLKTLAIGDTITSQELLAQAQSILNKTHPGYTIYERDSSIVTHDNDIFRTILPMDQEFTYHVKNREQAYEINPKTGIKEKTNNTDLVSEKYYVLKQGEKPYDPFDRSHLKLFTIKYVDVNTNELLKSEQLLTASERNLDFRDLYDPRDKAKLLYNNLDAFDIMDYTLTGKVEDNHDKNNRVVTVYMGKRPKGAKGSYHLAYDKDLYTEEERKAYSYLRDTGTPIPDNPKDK
Nature of the assay: viability-normalized secreted streptokinase activity reduction – plasminogen activation absorbance, OD405, dose response (AID 1914).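 Also: secreted streptokinase activity via plasminogen activation per viability signal from cell pellet.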 Type of assay: functional, Streptococcus pyogenes M1 GAS.

In another assay the target is Cytochrome P450 2D6 (Homo sapiens, UniProt P10635).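 Also: CYP2D6 member of a cytochrome P450 panel assay.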
Cytochrome P450 2D6, sequence (P10635 whole entry): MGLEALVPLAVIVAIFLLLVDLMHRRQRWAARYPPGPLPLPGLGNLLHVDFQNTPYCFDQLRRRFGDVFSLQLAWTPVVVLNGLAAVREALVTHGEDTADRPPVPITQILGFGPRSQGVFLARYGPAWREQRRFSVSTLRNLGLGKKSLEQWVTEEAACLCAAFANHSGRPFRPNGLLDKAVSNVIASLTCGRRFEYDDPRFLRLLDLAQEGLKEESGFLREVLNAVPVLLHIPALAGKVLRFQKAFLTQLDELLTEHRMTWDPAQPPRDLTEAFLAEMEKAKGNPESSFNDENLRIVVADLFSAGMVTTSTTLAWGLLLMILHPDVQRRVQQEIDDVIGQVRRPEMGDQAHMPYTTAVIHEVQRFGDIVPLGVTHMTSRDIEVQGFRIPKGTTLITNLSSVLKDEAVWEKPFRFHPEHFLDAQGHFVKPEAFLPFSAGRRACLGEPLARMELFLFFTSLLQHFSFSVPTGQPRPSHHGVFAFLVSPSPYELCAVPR
The target of a further assay is T4, Cytochrome P450 1A2 (Homo sapiens, UniProt P05177).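 Also: PubChem cytochrome P450 panel assay, CYP1A2 panel member.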
T4 sequence (P05177 whole entry): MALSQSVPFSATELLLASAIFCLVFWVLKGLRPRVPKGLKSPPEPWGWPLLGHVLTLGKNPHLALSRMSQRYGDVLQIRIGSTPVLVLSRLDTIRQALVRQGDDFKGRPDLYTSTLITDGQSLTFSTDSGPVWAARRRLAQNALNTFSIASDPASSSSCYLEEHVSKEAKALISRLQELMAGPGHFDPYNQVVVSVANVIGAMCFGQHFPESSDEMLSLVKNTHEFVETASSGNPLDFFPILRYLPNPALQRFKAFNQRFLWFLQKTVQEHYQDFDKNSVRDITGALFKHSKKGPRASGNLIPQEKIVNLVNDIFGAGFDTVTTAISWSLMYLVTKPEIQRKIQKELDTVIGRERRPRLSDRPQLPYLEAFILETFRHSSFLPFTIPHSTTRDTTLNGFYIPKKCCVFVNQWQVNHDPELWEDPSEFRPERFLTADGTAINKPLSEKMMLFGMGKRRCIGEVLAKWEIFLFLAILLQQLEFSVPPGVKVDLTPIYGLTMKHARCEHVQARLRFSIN

The nature of assay [10]: viability of uninfected HEp-2 cells – cell-based, HTS, cytotoxicity control for RSV inhibitor project, dose response (AID 2410). Type of assay: functional. The conditions noted are these: human respiratory syncytial virus.

Large T antigen, sequence (P03070 whole entry): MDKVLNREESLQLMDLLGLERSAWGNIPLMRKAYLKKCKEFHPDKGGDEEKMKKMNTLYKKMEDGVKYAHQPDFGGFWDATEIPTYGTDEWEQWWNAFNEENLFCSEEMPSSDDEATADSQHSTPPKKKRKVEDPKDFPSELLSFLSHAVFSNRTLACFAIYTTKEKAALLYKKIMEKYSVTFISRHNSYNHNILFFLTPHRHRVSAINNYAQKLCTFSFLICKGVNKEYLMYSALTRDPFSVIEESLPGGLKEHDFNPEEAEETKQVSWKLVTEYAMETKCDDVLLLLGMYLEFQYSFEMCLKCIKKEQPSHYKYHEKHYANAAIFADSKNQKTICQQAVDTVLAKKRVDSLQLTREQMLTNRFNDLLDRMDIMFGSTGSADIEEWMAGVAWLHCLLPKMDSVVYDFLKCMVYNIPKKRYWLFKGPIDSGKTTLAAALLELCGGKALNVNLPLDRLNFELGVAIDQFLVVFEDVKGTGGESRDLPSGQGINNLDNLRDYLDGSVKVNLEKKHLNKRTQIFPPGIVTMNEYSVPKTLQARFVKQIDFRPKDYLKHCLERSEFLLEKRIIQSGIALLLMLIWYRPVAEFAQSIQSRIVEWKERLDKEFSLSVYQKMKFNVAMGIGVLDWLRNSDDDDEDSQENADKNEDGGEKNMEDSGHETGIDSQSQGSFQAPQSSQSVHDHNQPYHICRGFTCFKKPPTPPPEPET

Consider `N/C(S)=N/c1c(Cl)cccc1Cl`, for which the IC50 at Large T antigen was 77.4 µM (active).
As for `CCOC(=O)N1CCC(NC(=O)c2cccs2)CC1`, in assay [1], the EC50 was > 260 µM (inactive).
On to `COc1cc2c3c(c1OC)C1(C=CC(=O)C=C1)CC3N(C(=O)c1ccccc1)CC2` (stereo not drawn), for which, in [1], the EC50 was > 260 µM (inactive).
As to `Cc1cccc(N(CC(=O)Nc2ccccc2-c2ccccc2)S(=O)(=O)c2ccccc2)c1C`, in assay [1], the EC50 was > 260 µM (inactive).
Regarding `Cc1nc(-c2ccccc2)sc1C(=O)/C=C/c1ccc(Cl)cc1`, the concentration at half-maximal activity (AC50) in assay [2] is 4.89 µM (active).
As to `Cc1ccc(/N=N/c2c(C)[nH]n(C(N)=S)c2=O)cc1`, the IC50 in “cells” was 5.24 µM (active).
For `O=C(N/N=C/c1ccc([N+](=O)[O-])o1)c1cc(-c2cccc(Br)c2)nc2ccccc12`, the EC50 in assay [3] was 7.92 µM (active); in assay [4], 128 nM (active); in assay [5], 7.86 µM (active); in assay [6], 0.398 µM (active); in the assay with Streptococcus, 0.796 µM (active); in assay [7], > 60 µM (not active).
`Cc1ccc(S(=O)(=O)N2CCOCC2)cc1NC(=O)CN1CCN(c2ccc(O)cc2)CC1`: the half-maximal inhibitory concentration (IC50) at Large T antigen is 5.03 µM (active).
As to `O=C(OCc1cccc(F)c1)c1ccc2c(=O)n3c(nc2c1)CCC3`, the IC50 in the assay “cells” is 12.1 µM (active).
Regarding `Cc1nc(CN2CCN(Cc3nc(C(c4ccccc4)c4ccccc4)no3)CC2)cs1`, the EC50 in assay [1] was > 260 µM (inactive).
For `Cc1csc(N/N=C/c2ccccn2)n1`, the AC50 in assay [2] was 11.2 µM (active).
As to `Cc1cc(N/N=C2/CCCc3ccccc32)nc2ccccc12`, in assay [8], the CC50 was > 40 µM (active).
Regarding `CCOC(=O)CN1C=C(c2ccc3ccccc3n2)C(C[N+](=O)[O-])c2ccccc21` (stereo not drawn), the EC50 in assay [1] was 70.3 µM (active).
For `CCCCOC(=O)Cn1c(-c2ccccc2)nc2ccccc2c1=O`, in the assay “cells”, the IC50 is 12.7 µM (active).
On to `COc1ccc(NC2CCCN(C(=O)c3ccc(OC)o3)C2)cc1` (stereo not drawn), for which the IC50 on Large T antigen is 16.7 µM (active).
Still for that read-out and setting: to `CCCCn1nnnc1SCC(=O)Nc1ccc(N(C)C)cc1` belongs 11.2 µM (active).
On to `COc1ccccc1C(=O)NNC(=O)C(=O)NCc1ccccc1`, for which the CC50 in assay [8] was > 40 µM (active).
With `CN1C(=O)C(O)(CC(=O)c2ccc(F)cc2)c2cc(Br)ccc21` (stereo not drawn), the EC50 in assay [3] was 19.1 µM (active); in [5], 15.7 µM (active).
For `Cc1ccc(P(=O)(CSC(=N)N)c2ccc(C)cc2)cc1` the same measures were 30.7 µM (active) and 25.4 µM (active).
Turning to `CS(=O)(=O)Cc1nc2ccccc2oc1=O`, the figures for the IC50 (in the assay “cells”; in assay [9]) were 2.93 µM (active) and 73.6 µM (active), respectively.
Regarding `CCCCn1c(=N)n(CC(O)COc2ccc(C)cc2)c2ccccc21` (stereo not drawn), the EC50 in assay [3] is 6.43 µM (active); in assay [5], 6.36 µM (active).
Consider `CCOc1ccc(C(=O)N2CCN(S(=O)(=O)c3cccs3)CC2)c(OCC)c1`, for which the EC50 in assay [1] was > 260 µM (inactive).
As to `Cc1nn(-c2ccccc2)c(C)c1/C=N/NC(=O)c1cc(-c2cccc3ccccc23)[nH]n1`, the CC50 in assay [8] was 30.5 µM (active). Moreover, the EC50 on Streptokinase A is > 150 µM (not active); in [6], 18.6 µM (active); in the assay with Streptococcus, 89.4 µM (active).
For the compound `O=C1CC(SC(=Nc2ccccc2)Nc2ccccc2)C(=O)N1c1cccc(Cl)c1` (stereo not drawn), the EC50 is 24.5 µM (active) in assay [3] and 33.2 µM (active) in assay [5]. Besides, the AC50 at Cytochrome P450 2D6 is 10 µM (inconclusive).
Turning to `C/C(=C\c1ccc(C(=O)O)cc1)c1ccc2c(c1)C(C)(C)CCC2(C)C`, the AC50 in assay [2] was 3.1 µM (active); at Cytochrome P450 1A2, 31.6 µM (inconclusive).
For the compound `Cc1cc(C)cc(OCC(O)CN2C(=O)NC(C)(C)C2=O)c1` (stereo not drawn), the EC50 in [1] was > 260 µM (inactive).
With `CN=C(S)NNC(=O)COc1cccc(C)c1C`, the CC50 in [10] was 48.9 µM (active).
Consider `CN(C(=O)c1ccccc1C(=O)OCC(=O)NCc1cccs1)C1CCCCC1`, for which the concentration for half-maximal inhibition (IC50) at Large T antigen was > 100 µM (active).
Turning to `CCc1ccc(NC(=O)c2cc3c(C)nc4ccccc4c3o2)cc1`, in [2], the AC50 was 6.51 µM (active). In addition, the CC50 in [10] was 39.6 µM (active).
In the case of `Cc1ccc2c[nH]nc2c1N`, at Large T antigen, the half-maximal inhibitory concentration (IC50) was 15.4 µM (active).
`COC(=O)c1cc(NC(S)=NCc2ccc(Cl)cc2)cc(C(=O)OC)c1`: in assay [10], the CC50 is 26.3 µM (active).
For the compound `CN(C)c1ccc(NC(=O)CN2CCC(C(=O)c3ccc(F)cc3)CC2)cc1`, at Large T antigen, the IC50 was 10.4 µM (active).
Regarding `O=C(CNC(=O)c1ccco1)OCc1ccc(C(=O)Oc2ccccc2)cc1`, in [8], the CC50 is > 40 µM (active). In the assay “cells”, the IC50 was 11.7 µM (active).
As to `COc1cccc(/C=N/NC(=S)NC2CC3CC2C2C=CCC32)c1O` (stereo not drawn), the EC50 in [1] is > 260 µM (inactive).
Same read-out and setting: to `Fc1ccc(CN2CCN(c3ncnc4scc(-c5ccccc5)c34)CC2)cc1` belongs > 260 µM (inactive).
For the compound `CCOc1cc(/C=N/n2cnnc2)ccc1O`, the IC50 was 13.6 µM (active) at Large T antigen and 34.3 µM (active) in assay [9].
For the compound `O=C(N/N=C/c1ccc(F)c(F)c1)c1cc2c(s1)-c1ccccc1CC2`, the EC50 was 22.4 µM (active) in [3] and 21.2 µM (active) in assay [5].
Consider `C=CCN(C(=O)Cn1nc(C)n2c(cc3cc(C)ccc32)c1=O)c1ccccc1`, for which the CC50 in [10] was > 50 µM (active).
On to `O=C(N/N=C/c1ccc(Br)s1)c1cccs1`, for which, in assay [8], the CC50 is 33.3 µM (active).
